Measured values from PubChem BioAssay AID1671209.

Target: Dual specificity tyrosine-phosphorylation-regulated kinase 4 (Homo sapiens) (UniProt Q9NR20)
Assay: DYRK4 kinase inhibitors, dose response, biochemical, Z'-LYTE, FRET, protease-coupled, direct format (AID 1671209)
Conditions: Z'-LYTE FRET kinase activity, recombinant DYRK4

Chain of Dual specificity tyrosine-phosphorylation-regulated kinase 4 (Homo sapiens) (Q9NR20 whole entry, looked up): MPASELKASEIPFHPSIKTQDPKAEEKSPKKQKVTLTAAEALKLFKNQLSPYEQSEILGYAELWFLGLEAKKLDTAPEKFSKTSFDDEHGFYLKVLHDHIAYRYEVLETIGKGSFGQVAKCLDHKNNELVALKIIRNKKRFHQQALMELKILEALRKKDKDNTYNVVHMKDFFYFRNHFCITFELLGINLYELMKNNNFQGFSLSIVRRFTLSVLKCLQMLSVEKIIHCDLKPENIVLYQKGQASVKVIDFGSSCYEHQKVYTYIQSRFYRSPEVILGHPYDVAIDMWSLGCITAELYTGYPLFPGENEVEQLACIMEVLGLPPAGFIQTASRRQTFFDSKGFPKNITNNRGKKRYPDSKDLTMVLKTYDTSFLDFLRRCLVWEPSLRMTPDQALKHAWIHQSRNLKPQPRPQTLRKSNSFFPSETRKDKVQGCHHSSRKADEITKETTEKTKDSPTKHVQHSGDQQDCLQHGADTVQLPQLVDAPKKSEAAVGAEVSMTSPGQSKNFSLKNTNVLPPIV

Q: With `Brc1c(Br)c(Br)c2n[nH]nc2c1Br` as the molecule, how does the IC50 read?
A: 12.9 µM
